Measurements: US11702430B2, “Aza-benzothiophene compounds as STING agonists” (Merck Sharp & Dohme LLC, priority 2018, dated 2023)

How the values were obtained:
[1] = tested on: IFN-β secretion in THP1 cells; test: IFN-β secretion in THP1 cell culture (5 h); type: cell-based; conditions: Homo sapiens, THP-1, 5 h, 30 μM compound, cGAMP at 30 μM set at 100%, read-out: % Effect at 30 μM relative to 2′3′-cGAMP
Description: The ability of compounds to stimulate the secretion of interferon-beta from THP1 cells was measured using a human IFN-β AlphaLISA kit (Perkin Elmer, Cat. No. AL265F). The basic protocol is as follows:
A Labcyte Echo 550 acoustic dispenser was used to transfer 120 nL of compound dissolved in DMSO into the wells of an empty, sterile 384-well microplate, (Corning, Cat. No. 3712). THP1 cells (American Type Culture Collection, Cat. No. TIB202) previously frozen in Recovery Medium (Life Technologies, Cat. No. 12648-010) were thawed and immediately diluted 10-fold into 37° C. assay medium (RPMI 1640+L-Glutamine & phenol red, Life Technologies, Cat. No. 11875-085; 0.5% heat inactivated fetal bovine serum, Sigma Aldrich, Cat. No. F4135; 1 mM Sodium Pyruvate, Life Technologies, Cat. No. 11360-070; lx non-essential amino acids; Life Technologies, Cat. No. 11140-050). The cell viability and count was ascertained using a Beckman Coulter V-Cell XR cell counter. The cells suspension was centrifuged at 200×g for 5 min at RT. Cells were resuspended to a density of 0.8×10^6/mL in 37° C. assay medium. Subsequent liquid transfers were performed using either a Matrix electronic multichannel pipette or an Agilent Bravo Automated Liquid Handling Platform.
The assay was started by dispensing 404, of the previously prepared cell suspension into the wells of the plate containing compounds. After 5 h incubation at 37° C., 5% CO2 in a humidified atmosphere, the plate of cells and compounds was centrifuged at 200×g for 5 min at RT. From each well, 54, of supernatant was transferred into corresponding wells of a white 384-well plate (Perkin Elmer, Cat. No. 6005620). To these supernatant-containing wells was added 10 μL of 5× Anti-Analyte Acceptor beads (50 μg/mL of AlphaLISA HiBlock Buffer) and incubated for 30 min at RT while shaking on an orbital plate shaker. To each well was added 104, of 5× Biotinylated Antibody Anti-analyte (5 nM in AlphaLISA HiBlock Buffer) and incubated on an orbital plate shaker for 60 min at RT or overnight at 4° C. To each well was added 254, of 2× SA-Donor beads (80 μg/mL in AlphaLISA HiBlock Buffer) and incubated for 30-45 min at RT in the dark while shaking on an orbital plate shaker. The plate was then read on a Perkin Elmer Envision (λex=680 nm, λem=[…]). The percent effect of the AlphaLISA signal at each compound concentration was calculated based on 30 uM cGAMP positive controls and 0.3% DMSO negative controls. The plot of percent effect versus the log of compound concentration was fit with a 4-parameter concentration response equation to calculate EC50 values. The test compounds were tested at concentrations 30000, 10000, 3333, 1111, 370.4, 123.4, 41.2, 13.7, 4.6, and 1.5 nM with 0.3% residual DMSO. The control compound, cGAMP was tested at concentrations 100000, 33333, 11111, 3704, 1235, 412, 137, 46, and 15 nM with 0.3% residual DMSO.

[2] = target: T1, full-length HAQ STING (Homo sapiens, UniProt Q86WV6, G230A/H232R/R293Q/R71H); test: 3H-cGAMP filtration binding assay (HAQ STING); conditions: for EC50: competition with tritiated cGAMP ligand, HAQ STING membrane
T1 construct: made in house; host or cells: Trichoplusia ni (Hi-Five) insect cells, baculovirus; crude membrane preparation
T1 sequence (Q86WV6 with tags, fused parts or gaps R71H/G230A/H232R/R293Q): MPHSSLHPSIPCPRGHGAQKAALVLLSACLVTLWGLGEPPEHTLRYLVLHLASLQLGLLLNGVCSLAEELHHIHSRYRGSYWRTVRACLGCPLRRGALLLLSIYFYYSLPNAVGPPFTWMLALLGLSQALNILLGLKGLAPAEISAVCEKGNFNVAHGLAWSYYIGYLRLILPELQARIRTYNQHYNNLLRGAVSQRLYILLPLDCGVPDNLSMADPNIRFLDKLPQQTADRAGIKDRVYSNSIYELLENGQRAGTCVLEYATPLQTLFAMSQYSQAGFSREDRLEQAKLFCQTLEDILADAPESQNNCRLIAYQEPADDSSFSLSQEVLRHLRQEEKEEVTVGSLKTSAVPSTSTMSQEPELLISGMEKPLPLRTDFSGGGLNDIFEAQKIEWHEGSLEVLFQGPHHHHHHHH
Description: The ability of compounds to bind STING is quantified by the ability to compete with tritiated cGAMP ligand for human STING receptor membrane using a radioactive filter-binding assay. The binding assay employs STING receptor obtained from Hi-Five cell membranes overexpressing full-length HAQ STING prepared in-house and tritiated cGAMP ligand also purified in-house.
The ability of compounds to bind STING is quantified by their ability to compete with tritiated cGAMP ligand for human STING receptor membrane using a radioactive filter-binding assay. The binding assay employs STING receptor obtained from Trichoplusia ni cell membranes (T. ni; Expression Systems, cat #94-002F, www.expressionsystems.com) overexpressing full-length HAQ STING and tritiated cGAMP ligand.
The basic HAQ STING filtration assay protocol is as follows:
The compounds were serially titrated by the Hamilton STARPlus CORE in a 96-well plate (Greiner, #651201) using a 1:3 ten-point dose response format. After compound preparation, a 2.2 ug/ml working concentration of STING membrane (SEQ. ID. No. 1) was prepared by diluting concentrated membrane into assay buffer (lx PBS; Invitrogen #SH30028.02) and douncing 7× using a manual tissue homogenizer (Wheaton, #357546). 148 uL of prepared membrane was then manually added to each well of a 96-well deep-well polypropylene plate (Fisher Scientific, #12-566-121). Following membrane addition, 2 uL of either titrated test compound, DMSO control (Sigma #276855), or cold cGAMP control was added to the appropriate wells using a BIOMEK FX. Compound and membrane then preincubated for 60 min at RT to allow compound binding to equilibrate. Following equilibration, 8 nM of [^3H] c-GAMP ligand was prepared by diluting into assay buffer, and 50 uL of this working stock was then manually added to each well of the assay plate. Plates were then incubated at RT for 60 min, and the contents of each assay plate were then filtered through a 96-well GF/B filter plate (PerkinElmer, #6005250) using a TOMTEC MACH III Cell Harvester equipped with 20 mM HEPES buffer (Fisher Scientific, #BP299500). The filter plates were then dried at 55° C. for 30 min using a pressurized oven before 30 uL of ULTIMA GOLD F scintillate was added to each well. Tritium levels for each reaction well were then measured using a PerkinElmer TopCount plate reader.
After normalization to controls, the percent activity for each compound concentration was calculated by measuring the amount of remaining radioactivity. The plot of percent activity versus the log of compound concentration was fit with a 4-parameter dose response equation to calculate EC50 values.

In the case of `COc1cc2nc(C(=O)CC(C)C(=O)O)sc2cc1OC` (single isomer, unassigned) [Example 2, 4-(5,6-Dimethoxy-1,3-benzothiazol-2-yl)-2-methyl-4-oxobutanoic Acid], the activation at 30 µM [1] is reported as 94% and the EC50 [2] is reported as 3.29 µM.

In the case of `COc1cc2sc(C(=O)CC(C)C(=O)O)cc2nc1OC` (single isomer, unassigned) [Example 7, (R or S)-4-(5,6-Dimethoxythieno[3,2-b]pyridin-2-yl)-2-methyl-4-oxobutanoic acid], the activation at 30 µM [1] is reported as 55% and the EC50 [2] is reported as 8.76 µM.

`COc1cc2sc(C(=O)CC(C)C(=O)O)cc2nc1OC` (single isomer, unassigned) [Example 8, (R or S)-4-(5,6-Dimethoxythieno[3,2-b]pyridin-2-yl)-2-methyl-4-oxobutanoic acid] gave an EC50 [2] of 1.54 µM.

`COc1cc2sc(C(=O)[C@H]3C[C@H]3C(=O)O)cc2nc1OC` (single isomer, unassigned) [Example 9, Cis-2-(5,6-dimethoxythieno[3,2-b]pyridine-2-carbonyl)cyclopropane-1-carboxylic Acid] gave an activation at 30 µM [1] of 100% and an EC50 [2] of 1.15 µM.

`CCC(CC(=O)c1cc2nc(OC)c(OC)cc2s1)C(=O)O` (single isomer, unassigned) [Example 11, (R or S)-4-(5,6-Dimethoxythieno[3,2-b]pyridin-2-yl)-2-ethyl-4-oxobutanoic acid] showed an EC50 [2] of 17.3 µM.

Compound `CCC(CC(=O)c1cc2nc(OC)c(OC)cc2s1)C(=O)O` (single isomer, unassigned) [Example 12, (R or S)-4-(5,6-Dimethoxythieno[3,2-b]pyridin-2-yl)-2-ethyl-4-oxobutanoic acid] has an EC50 [2] of 1.75 µM.

In the case of `CCCC(CC(=O)c1cc2nc(OC)c(OC)cc2s1)C(=O)O` (single isomer, unassigned) [Example 13, (R or S)-2-(2-(5,6-Dimethoxythieno[3,2-b]pyridin-2-yl)-2-oxoethyl) pentanoic acid], the “percent reduction in binding of tritiated cGAMP at top concentration” value ([2]; at 20,000 nM (20 uM) compound, HAQ STING) is reported as 7% @ 20,000.

Work on `CCCC(CC(=O)c1cc2nc(OC)c(OC)cc2s1)C(=O)O` (single isomer, unassigned) [Example 14, (R or S)-2-(2-(5,6-Dimethoxythieno[3,2-b]pyridin-2-yl)-2-oxoethyl) pentanoic acid] yielded an EC50 [2] of 1.39 µM.

Work on `CCC(CC(=O)c1cc2nc(OC)c(OC)nc2s1)C(=O)O` (single isomer, unassigned) [Example 17, (R or S)-4-(2,3-Dimethoxythieno[2,3-b]pyrazin-6-yl)-2-ethyl-4-oxobutanoic Acid] yielded an activation at 30 µM [1] of 116% and an EC50 [2] of 2.71 µM.

`COc1nc2cc(C(=O)CC(C)C(=O)O)sc2nc1OC` (single isomer, unassigned) [Example 18, (R or S)-4-(2,3-Dimethoxythieno[2,3-b]pyrazin-6-yl)-2-methyl-4-oxobutanoic Acid] gave an activation at 30 µM [1] of 77% and an EC50 [2] of 4.5 µM.

Work on `COc1cc2nc(C(=O)CCC(=O)O)sc2cc1OC` [Example 1, 4-(5,6-Dimethoxybenzo[d]thiazol-2-yl)-4-oxobutanoic Acid] yielded an activation at 30 µM [1] of 56% and an EC50 [2] of 13.3 µM.

For `COc1cc2sc(C(=O)C[C@H](C)C(=O)O)nc2cc1Br` [Example 3, (S)-4-(5-Bromo-6-methoxybenzo[d]thiazol-2-yl)-2-methyl-4-oxobutanoic Acid], the activation at 30 µM [1] was 11% and the EC50 [2] was 10.6 µM.

Compound `COc1cc2sc(C(=O)CC(C)C(=O)O)nc2c(F)c1OC` (stereo not drawn) [Example 4, 4-(4-Fluoro-5,6-dimethoxybenzo[d]thiazol-2-yl)-2-methyl-4-oxobutanoic Acid] has an activation at 30 µM [1] of 19% and an EC50 [2] of 6.79 µM.

`COc1cc2cc(C(=O)CCC(=O)O)sc2nc1OC` [Example 5, 4-(5,6-Dimethoxythieno[2,3-b]pyridin-2-yl)-4-oxobutanoic Acid] was tested, and the activation at 30 µM [1] was 146% and the EC50 [2] was 5.51 µM.

`COc1cc2sc(C(=O)CCC(=O)O)cc2nc1OC` [Example 6] was tested, and the activation at 30 µM [1] was 107% and the EC50 [2] was 2.44 µM.

With `COc1cc2sc(C(=O)C[C@H](C)C(=O)O)cc2nc1Cl` [Example 10, (S)-4-(5-Chloro-6-methoxythieno[3,2-b]pyridin-2-yl)-2-methyl-4-oxobutanoic Acid] the activation at 30 µM [1] was 70% and the EC50 [2] was 0.637 µM.

Compound `COc1nc2cc(C(=O)CCC(=O)O)sc2cc1Br` [Example 15, 4-(6-Bromo-5-methoxythieno[3,2-b]pyridin-2-yl)-4-oxobutanoic Acid] has an activation at 30 µM [1] of 142% and an EC50 [2] of 2.45 µM.

With `COc1nc2cc(C(=O)CCC(=O)O)sc2nc1OC` [Example 16, 4-(2,3-Dimethoxythieno[2,3-b]pyrazin-6-yl)-4-oxobutanoic Acid] the activation at 30 µM [1] was 108% and the EC50 [2] was 9.57 µM.

Compound `COc1cc2sc(C(=O)C[C@H](C)C(=O)O)nc2nc1OC` [Example 19, (S)-4-(5,6-Dimethoxythiazolo[4,5-b]pyridin-2-yl)-2-methyl-4-oxobutanoic Acid] has an activation at 30 µM [1] of 14% and an EC50 [2] of 10.1 µM.
